We go through 26 compounds from ChEMBL document CHEMBL1146704, “(2-amino-phenyl)-amides of omega-substituted alkanoic acids as new histone deacetylase inhibitors” (Bioorg Med Chem Lett, 2004).

Assay [1] has as its target Histone deacetylase 1 (Homo sapiens, UniProt Q13547).
Description: Ability to inhibit recombinant human histone deacetylase 1 (HDAC-1).
The test system of assay [2] is HCT-116. The assay is described as follows: In vitro antiproliferative activity against human cancer cell line HCT116 using MTT assay. It counts as functional, cell-based. For orientation: Formazan colour is commonly taken as a measure of viable cells.
Assay [3] concerns the target Histone deacetylase. Description: Effect on induced hyperacetylation of histones in whole cells. It counts as functional, cell-based, Homo sapiens.
For assay [4], the system named is COLO 205. The assay is described as follows: In vivo inhibitory activity against human COLO 205 tumor; Active.
The subject of assay [5] is A549. The assay is described as follows: In vivo inhibitory activity against human A549 non-small cell lung tumor; Active.
Assay [6] is described as follows: Compound was tested for tumor growth inhibition relative to control. In kind it is functional.
The test system of assay [7] is SW48. The assay is described as follows: In vivo inhibitory activity against human SW48 colon tumor; Active.
The subject of assay [8] is DU-145. Description: In vivo inhibitory activity against human DU145 prostate tumor; Active. The following applies: Prostate gland.
Assay [9] deals with PANC-1. The assay is described as follows: […] inhibitory activity against human PANC-1 pancreatic tumor; Active. In kind it is functional.

Activity calls are given as the source filed them. No cut-off for these calls is given here.

Histone deacetylase 1, sequence (Q13547 whole entry): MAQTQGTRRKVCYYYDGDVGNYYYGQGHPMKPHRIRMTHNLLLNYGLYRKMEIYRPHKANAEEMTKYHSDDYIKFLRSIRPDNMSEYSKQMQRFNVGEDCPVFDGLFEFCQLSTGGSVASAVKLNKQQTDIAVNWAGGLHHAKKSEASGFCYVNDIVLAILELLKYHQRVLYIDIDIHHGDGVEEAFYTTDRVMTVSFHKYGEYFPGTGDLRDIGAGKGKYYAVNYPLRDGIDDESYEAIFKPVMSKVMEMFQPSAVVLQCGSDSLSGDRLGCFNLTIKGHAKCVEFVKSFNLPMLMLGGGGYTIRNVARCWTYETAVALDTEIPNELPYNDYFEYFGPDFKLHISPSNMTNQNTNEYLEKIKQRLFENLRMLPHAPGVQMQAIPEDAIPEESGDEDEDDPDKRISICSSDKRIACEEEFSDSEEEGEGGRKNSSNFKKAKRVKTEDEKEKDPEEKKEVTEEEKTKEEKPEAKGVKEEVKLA

Broadly, the IC50 is the midpoint of a concentration-inhibition curve. A lower IC50 goes with greater potency. As to `Cn1c(=O)n(CCCCCC(=O)Nc2ccccc2N)c(=O)c2ccccc21`, the IC50 in assay [1] stood at 4 µM; in assay [2], 5 µM.
A word on the EC50: it is the concentration at which the effect is half-maximal. Low values mean an effect from little substance, high ones a need for much substance. `Nc1ccccc1NC(=O)CCCCCCC(=O)c1ccccc1`: the EC50 in [3] came out at 25 µM. The IC50 in [1] was 9 µM; in assay [2], over 25 µM.
The corresponding values for `Nc1ccccc1NC(=O)CCCCCCC(=O)c1ccc(Br)cc1` are 15 µM, 6 µM and 20 µM.
Consider `Nc1ccccc1NC(=O)CCCCCN1C(=O)c2ccc(O)cc2C1=O`, for which, in assay [3], the EC50 was determined as 10 µM. For the same compound, the midpoint of inhibition in [2], the IC50, lay at 11 µM.
In [3], `Nc1ccccc1NC(=O)CCCCCCC(=O)c1ccc2ccccc2c1` gave an EC50 of 25 µM. For the same compound, the IC50 stood at 2 µM in assay [1] and 9 µM in assay [2].
In assay [3], `Nc1ccccc1NC(=O)CCCCCN1C(=O)c2cccc3c(Br)ccc(c23)C1=O` displayed a concentration giving a half-maximal response (EC50) of 10 µM. In addition, the midpoint of inhibition in assay [2], the IC50, lay at 6 µM.
The corresponding values for `Cc1ccc2c(c1)C(=O)N(CCCCCC(=O)Nc1ccccc1N)C2=O` are 3 µM and 6 µM.
Regarding `COc1ccc(-c2ccc(C(=O)CCCCCCC(=O)Nc3ccccc3N)cc2)cc1OC`, in assay [3], the concentration for a half-maximal effect (EC50) stood at 3 µM. Further, the IC50 in [1] and in assay [2] was 4 µM each time.
As for `Nc1ccccc1NC(=O)CCCCCn1c(=O)[nH]c2ccccc2c1=O`, the concentration for a half-maximal effect (EC50) in assay [3] came out at 10 µM. In addition, the figures for the IC50 in assay [1] and in assay [2] were 4 µM and 5 µM, respectively.
`Nc1ccccc1NC(=O)CCCCCn1cnc2ccccc2c1=O` yielded a half-maximal inhibitory concentration (IC50) in [2] of 10 µM.
The TGI is how far tumour growth fell short of that in controls. Read a low TGI as a weaker effect on the tumour. With `Nc1ccccc1NC(=O)CCCCCN1C(=O)c2cccc3cc(O)cc(c23)C1=O`, the outcome in assay [4], in assay [5], in [7], in assay [8] and in assay [9] was Active. The compound further came in with a TGI in assay [6] of 28%. The compound also had a half-maximal inhibitory concentration (IC50) in assay [2] of 0.9 µM.
Regarding `Nc1ccccc1NC(=O)CCCCCn1nnc2ccccc2c1=O`, the 50% effective concentration (EC50) in [3] is 10 µM. Also, the concentration for half-maximal inhibition (IC50) in [1] came out at 8 µM; in assay [2], 10 µM.
Regarding `COc1ccc(C(=O)CCCCCCC(=O)Nc2ccccc2N)cc1`, in [3], the EC50 was found to be 5 µM. In addition, the IC50 in [1] came to 5 µM; in assay [2] it was 21 µM.
In the case of `Nc1ccccc1NC(=O)CCCCCCC(=O)c1ccc(-c2ccccc2)nc1`, the result in assay [4], in assay [5], in assay [7], in assay [8] and in [9] was Active. In addition, the concentration giving a half-maximal response (EC50) in [3] came to 5 µM. The IC50 was 3 µM in [1] and 5 µM in assay [2].
With `Nc1ccccc1NC(=O)CCCCCN1C(=O)c2cccc3c(CN4CCCCC4)c(O)cc(c23)C1=O`, the 50% effective concentration (EC50) in [3] turned out to be 1 µM. The IC50 in assay [2] worked out at 1 µM.
Compound `Nc1ccccc1NC(=O)CCCCCCC(=O)c1cccc(-c2ccccc2)c1` yielded an EC50 in assay [3] of 25 µM. Also, the IC50 in [1] was 1 µM; in assay [2], 12 µM.
For the compound `Nc1ccccc1NC(=O)CCCCCN1C(=O)c2cc(O)c(CN3CCOCC3)cc2C1=O`, the half-inhibitory concentration (IC50) is 4 µM in assay [1] and 12 µM in [2].
With `Nc1ccccc1NC(=O)CCCCCCC(=O)c1ccc(-c2ccccc2)cc1`, the outcome in assay [4], in [5], in assay [7], in assay [8] and in assay [9] was Active. Moreover, the 50% effective concentration (EC50) in [3] is 10 µM. Also, the TGI in [6] came to 53%. The IC50 in assay [1] amounted to 2 µM; in assay [2], 7 µM.
Take `Nc1ccccc1NC(=O)CCCCCN1Cc2ccccc2C1=O`: in assay [3], the EC50 was 99 µM. Also, the IC50 in [2] worked out at 15 µM.
The corresponding values for `Nc1ccccc1NC(=O)CCCCCN1C(=O)c2cccnc2C1=O` are over 25 µM and over 47 µM.
In assay [3], `Nc1ccccc1NC(=O)CCCCCCC(=O)c1ccc(-c2cccnc2)cc1` had a half-maximal effective concentration (EC50) of 20 µM. Also, the IC50 in assay [1] was 10 µM; in assay [2], 19 µM.
`Nc1ccccc1NC(=O)CCCCCN1C(=O)c2cccc3cccc(c23)C1=O`: the result in assay [4], in assay [5], in assay [7], in assay [8] and in [9] was Active. Also, the EC50 in [3] stood at 3 µM. Moreover, the IC50 came out at 3 µM in [1] and 2 µM in [2].
In the case of `Nc1ccccc1NC(=O)CCCCCN1C(=O)c2cccc3c(CN4CCOCC4)c(O)cc(c23)C1=O`, the result in [4], in [5], in assay [7], in assay [8] and in assay [9] was Active. In assay [3], the EC50 amounted to 2 µM. Also, the figures for the 50% inhibitory concentration (IC50) in assay [1] and in assay [2] were 0.5 µM and 1 µM, respectively.
On to `Nc1ccccc1NC(=O)CCCCCN1C(=O)c2cc(O)c(CN3CCCCC3)cc2C1=O`, for which the IC50 in assay [2] amounted to 31 µM. This counts as double-digit micromolar.
`Nc1ccccc1NC(=O)c1ccc(CNC(=O)OCc2cccnc2)cc1` [ENTINOSTAT] registered a 50% inhibitory concentration (IC50) in assay [2] of 0.5 µM. Against the preceding compound, the IC50 is about 62-fold lower.
For `Nc1ccccc1NC(=O)CCCCCN1C(=O)c2ccccc2C1=O`, in [3], the EC50 worked out at 5 µM. The 50% inhibitory concentration (IC50) worked out at 2 µM in assay [1] and 24 µM in assay [2].
